Reference: ChEMBL document CHEMBL1201862, “PubChem BioAssay data set” (2004)
Structures can show the parent of a compound that is named as a salt.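 Five compound concentrations were applied to cells in 96-well plates for 48 hours; endpoints were derived by simple linear interpolation of the resulting dose-response curve. GI50 marks 50% less growth.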 Calls of active or inactive are those of the source. Rule as the data show it: active = GI50 up to about 1.1 µM and inactive = higher.

Columns and labels:
Assay in all cases: NCI-60 cell line screen, 48 h
SR = test system: SR
NCI-H23 = test system: NCI-H23
COLO 205 = test system: COLO 205
UO-31 = test system: UO-31
RXF 393 = test system: RXF 393
ACHN = test system: ACHN
SF-295 = test system: SF-295
TK-10 = test system: TK-10
HL-60 = test system: HL-60
SK-OV-3 = test system: SK-OV-3
SK-MEL-5 = test system: SK-MEL-5
BT-549 = test system: BT-549
M14 = test system: M14
HT-29 = test system: HT-29
U-251 = test system: U-251
M19-MEL = test system: M19-MEL
HCT-15 = test system: HCT-15
MOLT-4 = test system: MOLT-4
OVCAR-3 = test system: OVCAR-3
HCT-116 = test system: HCT-116

Measured: GI50

COC(=O)C[C@](O)(CCCC(C)(C)O)C(=O)O[C@@H]1C(OC)=C[C@]23CCCN2CCc2cc4c(cc2[C@H]13)OCO4 [OMACETAXINE MEPESUCCINATE]
active: SR 0.0327 µM | NCI-H23 0.0528 µM | COLO 205 0.218 µM | UO-31 0.546 µM | RXF 393 0.107 µM | ACHN 0.617 µM | SF-295 0.152 µM | HL-60 0.0325 µM | SK-OV-3 0.122 µM | SK-MEL-5 0.117 µM | HT-29 0.115 µM | U-251 0.0571 µM | M19-MEL 0.0194 µM | MOLT-4 0.0123 µM
0.217 µM: HCT-15
inactive: TK-10 3.74 µM | BT-549 3.6 µM | M14 1.21 µM

COc1cc(/C=C(\OC(C)=O)c2ccc3c(c2)OCO3)cc(OC)c1OC
16 µM: HCT-15
inactive: SR 8.2 µM | NCI-H23 16.4 µM | OVCAR-3 18.3 µM | COLO 205 19.9 µM | UO-31 4.15 µM | RXF 393 24.8 µM | ACHN 17.9 µM | SF-295 23.8 µM | TK-10 26.6 µM | HL-60 27.4 µM | SK-OV-3 17.5 µM | SK-MEL-5 11.8 µM | M14 16.3 µM | HT-29 22.3 µM | U-251 18.5 µM | M19-MEL 14.9 µM | HCT-116 18.2 µM | MOLT-4 13.3 µM

Oc1ccc(Cn2c(-c3ccc(O)cc3)nc3ccccc32)cc1
> 100 µM: HCT-15
inactive: SR > 31.6 µM | NCI-H23 > 100 µM | OVCAR-3 > 100 µM | COLO 205 > 100 µM | UO-31 > 100 µM | RXF 393 > 100 µM | ACHN > 100 µM | SF-295 > 100 µM | TK-10 > 100 µM | HL-60 > 31.6 µM | SK-OV-3 > 100 µM | SK-MEL-5 > 100 µM | BT-549 > 100 µM | M14 > 100 µM | HT-29 > 100 µM | U-251 > 100 µM | M19-MEL > 100 µM | HCT-116 > 100 µM | MOLT-4 > 100 µM

O=C1C(Br)=CC2(C=C1Br)CCNC1=C2C2=NCCc3c[nH]c(c32)C1=O
active: SR 0.0431 µM | NCI-H23 0.119 µM | OVCAR-3 0.0249 µM | COLO 205 0.0149 µM | UO-31 0.308 µM | RXF 393 0.0681 µM | ACHN 0.0962 µM | TK-10 0.204 µM | HL-60 0.0129 µM | SK-MEL-5 0.126 µM | BT-549 0.212 µM | M14 0.0703 µM | HT-29 0.0275 µM | U-251 0.398 µM | M19-MEL 0.0275 µM | HCT-116 0.0233 µM | MOLT-4 0.0315 µM
0.0605 µM: HCT-15
inactive: SF-295 1.25 µM | SK-OV-3 1.9 µM

CC(=O)CCCCCCCCCCCC[C@@H]1CC[C@H](C)[C@H](O)N1
inactive: SR 90.4 µM | NCI-H23 > 100 µM | OVCAR-3 > 100 µM | COLO 205 > 100 µM | UO-31 67.1 µM | RXF 393 > 100 µM | ACHN > 100 µM | SF-295 > 100 µM | TK-10 > 100 µM | HL-60 43.4 µM | SK-OV-3 > 100 µM | SK-MEL-5 46.9 µM | M14 53.5 µM | HT-29 38.3 µM | U-251 > 100 µM | M19-MEL 95.5 µM | HCT-116 > 100 µM | MOLT-4 > 100 µM
> 100 µM: HCT-15

CC(=O)N(C)c1ccc(Nc2cc(C)nc3ccc4nc[nH]c4c23)cc1 [ACODAZOLE HYDROCHLORIDE]
23 µM: HCT-15
inactive: SR 3.29 µM | NCI-H23 10.2 µM | OVCAR-3 8.63 µM | COLO 205 4.38 µM | UO-31 12.2 µM | RXF 393 9.25 µM | ACHN 4.5 µM | SF-295 14.1 µM | TK-10 13.6 µM | HL-60 7.03 µM | SK-OV-3 10.5 µM | SK-MEL-5 7.28 µM | BT-549 10 µM | M14 10.8 µM | HT-29 11.3 µM | U-251 8.09 µM | M19-MEL 8.97 µM | HCT-116 4.55 µM | MOLT-4 1.72 µM

Cc1n(CC(C)C)c2c([n+]1C)C(=O)c1ccccc1C2=O
inactive: UO-31 1.29 µM
active: SR 0.301 µM | NCI-H23 0.0374 µM | OVCAR-3 < 0.01 µM | COLO 205 < 0.0152 µM | RXF 393 0.811 µM | ACHN 0.432 µM | SF-295 0.415 µM | TK-10 0.411 µM | HL-60 0.0405 µM | SK-OV-3 0.35 µM | SK-MEL-5 0.0473 µM | BT-549 0.227 µM | M14 0.27 µM | HT-29 0.0241 µM | U-251 0.0588 µM | M19-MEL 0.0719 µM | HCT-116 0.0494 µM | MOLT-4 0.0478 µM
0.478 µM: HCT-15

O=C(c1ccc(F)cc1)c1cccc(C(=O)c2ccc(F)cc2)n1
> 100 µM: HCT-15
inactive: SR > 100 µM | NCI-H23 20.2 µM | OVCAR-3 > 100 µM | COLO 205 > 100 µM | UO-31 45.3 µM | RXF 393 5.56 µM | ACHN 46.2 µM | SF-295 3.4 µM | TK-10 39.7 µM | HL-60 > 100 µM | SK-OV-3 1.53 µM | SK-MEL-5 51.8 µM | BT-549 12.2 µM | M14 62.2 µM | HT-29 > 100 µM | U-251 19.1 µM | M19-MEL > 72.3 µM | HCT-116 22.9 µM | MOLT-4 > 100 µM

Cc1cc2c(=O)n(-c3ccc(F)cc3)c(C)nc2c(C(=O)O)c1C
> 100 µM: HCT-15
inactive: SR > 100 µM | NCI-H23 > 100 µM | OVCAR-3 > 100 µM | COLO 205 > 100 µM | UO-31 > 100 µM | RXF 393 > 100 µM | ACHN > 100 µM | SF-295 > 100 µM | TK-10 > 100 µM | HL-60 > 100 µM | SK-OV-3 > 100 µM | SK-MEL-5 > 100 µM | M14 > 100 µM | HT-29 > 100 µM | U-251 > 100 µM | M19-MEL > 100 µM | HCT-116 > 100 µM | MOLT-4 > 100 µM
